# What was measured:
# [1] = biological target: T1, recombinant human 11β-HSD1 (Homo sapiens, UniProt P28845); assay: 11β-HSD1 enzyme activity in cell lysates (cortisone to cortisol, radiolabeled tracer, TLC); type: biochemical; details: for 11β-HSD1 Residual activity, % of control at 100 nM: 100 nM compound; for 11β-HSD1 Residual activity, % of control at 100 nM / 11β-HSD1 Residual activity, % of control at 1 μM: lysates of HEK-293 cells, 200 nM cortisone, mean of three experiments; for 11β-HSD1 Residual activity, % of control at 1 μM: 1 μM compound; for activity towards 11β-HSD1, effect of substituent (in words): SAR comparison within the series
# T1 construct: expressed in transfected cells
# Description: (§1) Human embryonic kidney (HEK-293) cells either stably expressing human 11β-HSD1 and H6PDH (HHH7 clone, [38]) or 11β-HSD2 (AT8 clone, [39]), or transiently expressing human 17β-HSD1 or 17β-HSD2, were cultivated in Dulbecco’s modified Eagle medium (DMEM) containing 4.5 g/L glucose, 10% fetal bovine serum, 100 U/mL penicillin, 0.1 mg/mL streptomycin, 1 × MEM nonessential amino acids, and 10 mM HEPES buffer, pH 7.4. Cells were washed with phosphate-buffered saline (PBS), centrifuged for 4 min at 150 × g, and the cell pellets were snap frozen on dry ice and stored at −80°C until further use.
# (§2) Cell lysates were resuspended in TS2 buffer (100 mM NaCl, 1 mM EGTA, 1 mM EDTA, 1 mM MgCl2, 250 mM sucrose, 20 mM Tris-HCl, pH 7.4), followed by sonication at 4°C using a Hielscher UP50H ultrasonic processor (0.3 cycle, 20 amplitude %, 20 impulses; Hielscher Ultrasonics GmbH, Teltow Germany). Cell lysates, reaction mixture, and either vehicle (DMSO) or inhibitor were incubated for 10 min at 37°C in a final volume of 22.2 μL. The solvent concentration was 0.1%. […] 11β-HSD2 activity was measured in the presence of 50 nM cortisol and 500 μM NAD^+. An amount of 50 nCi of radiolabeled tracer substrate was included in the experiments. […] The bands of the corresponding steroids were excised, followed by scintillation counting and calculation of the amount of substrate conversion. Data were obtained from at least three independent measurements. Glycyrrhetinic acid (CTRL 1) was used as positive control for 11β-HSD1 and 11β-HSD2 inhibition, apigenin (CTRL 2) for 17β-HSD1, and compound 22 from Vuorinen et al. [40](CTRL 3) for 17β-HSD2 inhibition.
# [2] = tested on: T2, recombinant human 11β-HSD2; assay: 11β-HSD2 enzyme activity in cell lysates (cortisol to cortisone); type: biochemical; details: 1 μM compound; lysates of HEK-293 cells; 50 nM cortisol
# T2 construct: expressed in transfected cells
# Description: as §1, §2
# human skin biopsies = assay: Dermal total collagen content in ex vivo human skin biopsies (Picrosirius Red); details: 10 nM, 100 nM and 1 μM cortisone; p<0.01
# Description: Ex vivo skin experiments were performed as contract research by Cutech Biotechnology following the Helsinki declaration and who obtained permission as well as informed consent from the patient (Padova, Italy). Human skin from abdominal plastic surgery of a donor was used. Skin samples were cut in pieces of approximately 8 × 3 mm (diameter × thickness) and cultured in an air-liquid interface in a perforated ring of stainless steel in contact with culture medium (modified Williams’ E medium, Sigma Aldrich) up to day 6. The culture medium was renewed on day 0 and day 3. The test compounds were applied topically and renewed daily. The application was performed as follows: skin biopsies were gently cleaned with a cotton pad and 4 μL of 10 μM or 100 μM test compound were applied on top of each piece and covered with a 6 mm (diameter) delivery membrane (CoTran 9728 Controlled Caliper Ethylene Vinyl Acetate Membrane, 3M, St. Paul, MN, USA).
# Skin viability was assessed in two skin biopsies after 6 days of treatment using methylthiazolyldiphenyl‐tetrazolium bromide (MTT, Sigma Aldrich) staining. Total dermal collagen in skin sections was semi-quantitatively evaluated by Picrosirius Red histochemical staining (using Picric Acid, Fast Green FCF and Direct Red from Sigma Aldrich) that dyes collagen fibers in purple-red. […] The evaluation was performed by estimating both color intensity and distribution using IMAGE J (NIH) analysis software, allowing to obtain a semi-quantitative evaluation of dermal collagen (collagen score). Two slides of each skin sample were processed by image acquisition and related analysis (i.e. 12 images for each treatment).
# T1 sequence (P28845 whole entry): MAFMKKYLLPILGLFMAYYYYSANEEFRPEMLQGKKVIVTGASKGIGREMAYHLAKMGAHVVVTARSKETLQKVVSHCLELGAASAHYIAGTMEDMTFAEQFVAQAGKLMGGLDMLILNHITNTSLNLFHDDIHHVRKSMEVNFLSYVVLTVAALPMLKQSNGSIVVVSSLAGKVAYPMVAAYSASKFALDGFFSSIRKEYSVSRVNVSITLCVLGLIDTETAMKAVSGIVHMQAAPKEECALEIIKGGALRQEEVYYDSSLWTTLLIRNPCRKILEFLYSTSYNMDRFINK
SMILES,IC50 [1] [nM],"11β-HSD1 Residual activity, % of control at 100 nM [1]","11β-HSD1 Residual activity, % of control at 1 μM [1]",melting point [°C],"activity towards 11β-HSD1, effect of substituent (in words) ([1]; cell lysates)","activity towards 11β-HSD1 (in words) ([1]; at 1 μM, cell lysates)","11β-HSD2 Residual activity, % of control at 1 μM [2]",decrease in dermal collagen (human skin biopsies)
"Cc1ccc(-c2cccc(C(=O)N3CCC(C)CC3)c2)cc1 [1b, (4’-Methyl-[1,1’-biphenyl]-3-yl)(4-methylpiperidin-1-yl)methanone]",47.7,52 % of control,1 % of control,–,–,–,> 90 % of control,–
"Cc1ccc(-c2cccc(C(=O)N3CCCCCC3)c2)cc1 [1e, Azepan-1-yl(4’-methyl-[1,1’-biphenyl]-3-yl)methanone]",37.4,17 % of control,–,109 to 111,–,–,> 90 % of control,–
"Cc1ccc(-c2cccc(C(=O)N3CCCCCC3)c2)cn1 [2e, Azepan-1-yl-(3-(6-methylpyridin-3-yl)phenyl)methanone]",46,30 % of control,–,–,–,–,> 90 % of control,–
"Cc1ccc(-c2cccc(C(=O)N3CCCC(C)(C)C3)c2)cc1F [3a, (3,3-Dimethylpiperidin-1-yl)(3’-fluoro-4’-methyl-[1,1’-biphenyl]-3-yl)methanone]",47.2,60 % of control,3 % of control,–,–,–,> 90 % of control,–
Cc1ccc(-c2cccc(C(=O)N3CCC(C)CC3)c2)cc1F [3b],53.8,44 % of control,1 % of control,–,–,–,> 90 % of control,–
"Cc1ccc(-c2cccc(C(=O)N3CCOC(C)(C)C3)c2)cc1F [3c, (2,2-Dimethylmorpholino)(3’-fluoro-4’-methyl-[1,1’-biphenyl]-3-yl)methanone]",27.9,14 % of control,1 % of control,–,–,–,–,–
"Cc1ccc(-c2cccc(C(=O)N3CC(C)OC(C)C3)c2)cc1F (centres unmarked) [3d, (2,6-Dimethylmorpholino)(3’-fluoro-4’-methyl-[1,1’-biphenyl]-3-yl)methanone]",–,44 % of control,4 % of control,–,–,–,> 90 % of control,–
"Cc1ccc(-c2cccc(C(=O)N3CCC[C@H]3C(N)=O)c2)cc1F [3f, (S)-1-(3’-fluoro-4’-methyl-[1,1’-biphenyl]-3-carbonyl)-pyrrolidine-2-carboxamide]",–,> 90 % of control,> 90 % of control,73 to 75,abolished the activity,–,> 90 % of control,–
"CC1CCN(C(=O)c2cccc(-c3ccc(F)cc3)c2)CC1 [4b, (4’-Fluoro-[1,1’-biphenyl]-3-yl)(4-methylpiperidin-1-yl)methanone]",–,43 % of control,4 % of control,–,–,–,> 90 % of control,–
"CC1CCN(C(=O)c2cccc(-c3ccc(Cl)cc3)c2)CC1 [5b, (4’-Chloro-[1,1’-biphenyl]-3-yl)(4-methylpiperidin-1-yl)methanone]",–,58 % of control,3 % of control,–,–,–,> 90 % of control,–
"C[C@]12CCC(=O)C=C1CC[C@@H]1[C@@H]2C(=O)C[C@@]2(C)[C@H]1CC[C@]2(O)C(=O)CO [cortisone, reference compound]",–,–,–,–,–,–,–,20–26%

# Now from value to compound, other results behind:
IC50 [1] [nM],"11β-HSD1 Residual activity, % of control at 100 nM [1]","11β-HSD1 Residual activity, % of control at 1 μM [1]",melting point [°C],"activity towards 11β-HSD1, effect of substituent (in words) ([1]; cell lysates)","activity towards 11β-HSD1 (in words) ([1]; at 1 μM, cell lysates)",SMILES,"11β-HSD2 Residual activity, % of control at 1 μM [2]",decrease in dermal collagen (human skin biopsies)
–,50 % of control,2 % of control,116 to 117,–,–,"O=C(c1cccc(-c2ccc(Cl)cc2)c1)N1CCCCCC1 [5e, Azepan-1-yl(4’-chloro-[1,1’-biphenyl]-3-yl)methanone]",> 90 % of control,–
62.2,49 % of control,4 % of control,–,–,–,"CC1CCN(C(=O)c2cccc(-c3ccccc3Cl)c2)CC1 [6b, (2’-Chloro-[1,1’-biphenyl]-3-yl)(4-methylpiperidin-1-yl)methanone]",> 90 % of control,–
–,> 90 % of control,> 90 % of control,–,–,inactive,"NC(=O)[C@@H]1CCCN1C(=O)c1cccc(-c2ccccc2Cl)c1 [6f, (S)-1-(2’-Chloro-[1,1’-biphenyl]-3-carbonyl)-pyrrolidine-2-carboxamide]",> 90 % of control,–
–,28 % of control,–,184 to 185,–,–,"O=C(c1cccc(-c2ccc(O)cc2)c1)N1CCCCCC1 [7e, Azepan-1-yl(4’-hydroxy-[1,1’-biphenyl]-3-yl)methanone]",> 90 % of control,–
–,70 % of control,8 % of control,–,lower activity,–,"CC1CCN(C(=O)c2cccc(-c3cccc(O)c3)c2)CC1 [8b, (3’-Hydroxy-[1,1’-biphenyl]-3-yl)(4-methylpiperidin-1-yl)methanone]",> 90 % of control,–
–,65 % of control,19 % of control,188 to 190,substantial loss of activity,–,"CC1CCN(C(=O)c2cccc(-c3ccc(C(N)=O)cc3)c2)CC1 [9b, 3’-(4-methylpiperidine-1-carbonyl)-[1,1’-biphenyl]-4-carboxamide]",> 90 % of control,–
–,89 % of control,34 % of control,–,substantial loss of activity,–,"CC1CCN(C(=O)c2cccc(-c3cccc(C(N)=O)c3)c2)CC1 [10b, 3’-(4-methylpiperidine-1-carbonyl)-[1,1’-biphenyl]-3-carboxamide]",> 90 % of control,–
–,69 % of control,–,–,lower activity,–,"Cc1ccc(-c2cccc(C(=O)N3CCCCCC3)c2)cc1C [11e, Azepan-1-yl(3’,4’-dimethyl-[1,1’-biphenyl]-3-yl)methanone]",> 90 % of control,–

# Source: publication PMC5289826 (PLoS ONE, 2017)
